According to BigSolDB 2.1:

Conditions: in ethyl acetate

CCCCCOC(=O)Nc1nc(=O)n([C@@H]2O[C@H](C)[C@@H](O)[C@H]2O)cc1F
Conditions | solubility (mole fraction)
278.15 K | 0.003
283.15 K | 0.0039
288.15 K | 0.0052
293.15 K | 0.00678
298.15 K | 0.00919
303.15 K | 0.0112
308.15 K | 0.0149
313.15 K | 0.019
318.15 K | 0.0237
323.15 K | 0.0301
